Results as given in patent publication US20060167019A1, “Fungicidal mixtures based on a trizolopyrimidine derivative” (priority 2003, published 2006).

System: Plasmopara viticola
Assay: Activity against peronospora of grapevines caused by Plasmopara viticola (protective spray on potted vines)
Type: in vivo
Settings: individual active compound, potted vines cultivar Müller-Thurgau, untreated control 84% infection
Experimental: The active compounds, separately or jointly, were prepared as a stock solution comprising 0.25% by weight of active compound in acetone or DMSO. 1% by weight of the emulsifier Uniperol® EL (wetting agent having emulsifying and dispersant action based on ethoxylated alkylphenols) was added to this solution, and the mixture was diluted with water to the desired concentration.
Leaves of potted vines of the cultivar “Müller-Thurgau” were sprayed to runoff point with an aqueous suspension having the concentration of active compound stated below. The next day, the undersides of the leaves were inoculated with an aqueous zoospore suspension of Plasmopara viticola. The grapevines were then initially placed in a water-vapor-saturated chamber at 24° C. for 48 hours and then in a greenhouse at 20-30° C. for 5 days. After this period of time, the plants were again placed in a humid chamber for 16 hours to promote sporangiophore eruption. The extent of the development of the disease on the undersides of the leaves was then determined visually.
The visually determined percentages of infected leaf areas were converted into efficacies in % of the untreated control:
The efficacy (E) is calculated as follows using Abbot's formula: E=(1−α/β)−100 α corresponds to the fungicidal infection of the treated plants in % and β corresponds to the fungicidal infection of the untreated (control) plants in %
An efficacy of 0 means that the infection level of the treated plants corresponds to that of the untreated control plants; an efficacy of 100 means that the treated plants are not infected.
The expected efficacies of mixtures of active compounds were determined using Colby's formula (Colby, S. R. “Calculating synergistic and antagonistic responses of herbicide combinations”, Weeds, 15, 20-22, 1967) and compared with the observed efficacies.
Colby's formula: E=x+y−x·y/100 • E expected efficacy, expressed in % of the untreated control, when using the mixture of the active compounds A and B at the concentrations a and b • x efficacy, expressed in % of the untreated control, when using the active compound A at the concentration a • y efficacy, expressed in % of the untreated control, when using the active compound B at the concentration b

Row | Structure (SMILES) | Efficacy in % of the untreated control (0.25 ppm in the spray liquor) | Efficacy in % of the untreated control (1 ppm in the spray liquor)
1 | CC1CCN(c2c(-c3c(F)cccc3Cl)c(Cl)nc3ncnn23)CC1 [Comparison A] | 0% | 0%
2 | C[C@H](Nc1c(-c2c(F)cc(F)cc2F)c(Cl)nc2ncnn12)C(F)(F)F [Comparison B] | 5% | 17%
3 | CC1CCN(c2c(-c3c(F)cc(F)cc3F)c(Cl)nc3ncnn23)CC1 [I, 5-chloro-7-(4-methylpiperidin-1-yl)-6-(2,4,6-trifluorophenyl)-[1,2,4]triazolo[1,5-a]pyrimidine] | 0% | 17%
